Experimental data published in ChEMBL document CHEMBL1153880, “Synthesis and adrenolytic activity of 1-(1H-indol-4-yloxy)-3-{[2-(2-methoxyphenoxy)ethyl]amino}propan-2-ol and its enantiomers. Part 1” (Eur J Med Chem, 2009).
Active and inactive are the calls of the source. The calls are words filed in the database; no cut-off is given here.

Legend:
Rattus norvegicus [1] = test: Hypotensive activity in anaesthetized normotensive Wistar rat assessed as decrease in diastolic pressure at 0.625 mg/kg, iv administered as single dose after 5 mins; assay type: functional; design: scale not given: the % may be the effect or the level left
Rattus norvegicus [2] = test: Hypotensive activity in anaesthetized normotensive Wistar rat assessed as decrease in systolic pressure at 0.625 mg/kg, po administered as single dose after 5 mins; assay type: functional, organism-based; design: dose 0.625 mg/kg
Rattus norvegicus [3] = test: Hypotensive activity in anaesthetized normotensive Wistar rat assessed as reduction in norepinephrine induced pressor response at 1 mg/kg, iv after 5 mins; assay type: functional, organism-based; design: dose 1 mg/kg
[4] = target: T1, Adrenergic receptor alpha-2 (Rattus norvegicus, UniProt P22086+P19328+P22909); test: Displacement of [3H]clonidine from alpha2 adrenergic receptor in rat cerebral cortex by liquid scintillation method; assay type: tissue-based
T1 sequence (P22086 whole entry): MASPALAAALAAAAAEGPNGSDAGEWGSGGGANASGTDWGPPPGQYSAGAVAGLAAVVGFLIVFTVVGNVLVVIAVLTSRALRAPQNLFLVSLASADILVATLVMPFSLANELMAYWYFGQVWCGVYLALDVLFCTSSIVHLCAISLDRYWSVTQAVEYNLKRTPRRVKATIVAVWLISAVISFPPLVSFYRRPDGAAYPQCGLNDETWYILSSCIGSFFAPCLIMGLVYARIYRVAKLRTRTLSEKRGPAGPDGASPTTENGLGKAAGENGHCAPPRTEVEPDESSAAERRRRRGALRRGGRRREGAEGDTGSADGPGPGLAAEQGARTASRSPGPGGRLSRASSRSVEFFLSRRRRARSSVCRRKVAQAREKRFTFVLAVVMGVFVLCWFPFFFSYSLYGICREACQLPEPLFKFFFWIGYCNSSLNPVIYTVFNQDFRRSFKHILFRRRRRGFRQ
T1 sequence (P19328 whole entry): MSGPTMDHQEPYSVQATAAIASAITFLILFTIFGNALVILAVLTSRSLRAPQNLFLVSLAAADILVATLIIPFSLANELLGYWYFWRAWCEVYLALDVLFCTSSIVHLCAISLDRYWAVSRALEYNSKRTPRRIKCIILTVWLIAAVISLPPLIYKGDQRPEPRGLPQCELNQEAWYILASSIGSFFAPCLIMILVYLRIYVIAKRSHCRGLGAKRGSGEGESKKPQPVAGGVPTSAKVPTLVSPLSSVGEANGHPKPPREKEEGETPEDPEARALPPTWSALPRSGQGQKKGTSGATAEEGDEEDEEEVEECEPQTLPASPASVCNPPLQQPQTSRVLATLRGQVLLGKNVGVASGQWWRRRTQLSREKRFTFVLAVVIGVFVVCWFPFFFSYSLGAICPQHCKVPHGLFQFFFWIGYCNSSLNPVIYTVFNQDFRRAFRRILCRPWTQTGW
T1 sequence (P22909 whole entry): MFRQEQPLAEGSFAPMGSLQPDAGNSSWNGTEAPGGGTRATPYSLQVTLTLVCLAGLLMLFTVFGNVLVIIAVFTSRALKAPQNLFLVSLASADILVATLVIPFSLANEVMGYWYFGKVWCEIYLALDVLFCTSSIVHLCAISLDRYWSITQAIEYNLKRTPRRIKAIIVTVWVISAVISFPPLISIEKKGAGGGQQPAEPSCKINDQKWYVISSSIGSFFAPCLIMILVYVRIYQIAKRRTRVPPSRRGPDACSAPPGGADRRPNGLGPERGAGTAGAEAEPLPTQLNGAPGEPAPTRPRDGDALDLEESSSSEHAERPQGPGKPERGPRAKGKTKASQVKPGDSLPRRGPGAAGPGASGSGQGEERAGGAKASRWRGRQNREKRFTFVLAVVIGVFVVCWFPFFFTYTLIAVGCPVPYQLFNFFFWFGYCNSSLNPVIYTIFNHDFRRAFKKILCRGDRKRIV

Rattus norvegicus [5] = test: Hypotensive activity in anaesthetized normotensive Wistar rat assessed as decrease in diastolic pressure at 0.625 mg/kg, po administered as single dose after 5 mins; assay type: functional, organism-based; design: dose 0.625 mg/kg
Rattus norvegicus [6] = test: Hypotensive activity in anaesthetized normotensive Wistar rat assessed as decrease in systolic pressure at 0.625 mg/kg, iv administered as single dose after 5 mins; assay type: functional; design: scale not given: the % may be the effect or the level left
Rattus norvegicus [7] = test: Hypotensive activity in anaesthetized normotensive Wistar rat assessed as decrease in diastolic pressure at 0.125 to 1 mg/kg, iv administered as single dose after 5 mins; assay type: functional; design: scale not given: the % may be the effect or the level left; conditions: dose mg/kg 0.125-1
[8] = Acute toxicity in iv dosed anaesthetized Wistar rat; assay type: organism-based; conditions: in vivo
Rattus norvegicus [9] = test: Hypotensive activity in anaesthetized normotensive Wistar rat assessed as decrease in systolic pressure at 0.125 to 1 mg/kg, iv administered as single dose after 5 mins; assay type: functional; design: scale not given: the % may be the effect or the level left; conditions: dose mg/kg 0.125-1
[10] = Increase in frequency of contraction in rabbit intestine at 1 nM after 5 mins; assay type: functional, Oryctolagus cuniculus
Rattus norvegicus [11] = test: Hypotensive activity in anaesthetized normotensive Wistar rat assessed as decrease in diastolic pressure at 0.125 to 1 mg/kg, po administered as single dose after 5 mins; assay type: functional, organism-based
Rattus norvegicus [12] = test: Hypotensive activity in anaesthetized normotensive Wistar rat assessed as decrease in diastolic pressure at 0.25 to 1 mg/kg, iv administered as single dose after 5 mins; assay type: functional; design: scale not given: the % may be the effect or the level left; conditions: dose mg/kg 0.25-1
[13] = Decrease in amplitude of contraction in rabbit intestine at 10 uM after 5 mins; assay type: functional, Oryctolagus cuniculus; design: scale not given: the % may be the effect or the level left
Rattus norvegicus [14] = test: Hypotensive activity in anaesthetized normotensive Wistar rat assessed as decrease in systolic pressure at 0.25 to 1 mg/kg, iv administered as single dose after 5 mins; assay type: functional; design: scale not given: the % may be the effect or the level left; conditions: dose mg/kg 0.25-1
Rattus norvegicus [15] = test: Hypotensive activity in anaesthetized normotensive Wistar rat assessed as decrease in systolic pressure at 0.125 to 1 mg/kg, po administered as single dose after 5 mins; assay type: functional, organism-based
Rattus norvegicus [16] = test: Hypotensive activity in po dosed anaesthetized normotensive Wistar rat assessed as decrease in systolic pressure administered as single dose after 5 mins; assay type: functional, organism-based
Rattus norvegicus [17] = test: Hypotensive activity in po dosed anaesthetized normotensive Wistar rat assessed as decrease in diastolic pressure administered as single dose after 5 mins; assay type: functional, organism-based

## COc1ccccc1OCCNC[C@H](O)COc1cccc2[nH]ccc12
Rattus norvegicus [1]
  Activity: 8%
Rattus norvegicus [2]
  Activity: Active
Rattus norvegicus [3]
  Activity: Active
[4]
  Ki: 365.5 nM
Rattus norvegicus [5]
  Activity: Active
Rattus norvegicus [6]
  Activity: 8%
Rattus norvegicus [7]
  Activity: 14%
[8]
  LD50: 36.2 mg/kg
Rattus norvegicus [9]
  Activity: 15%

## COc1ccccc1OCCNCC(O)COc1cccc2[nH]ccc12 (racemic)
[10]
  Activity: 8%
Rattus norvegicus [11]
  Activity: Active
Rattus norvegicus [3]
  Activity: Active
[4]
  Ki: 1.4 nM
Rattus norvegicus [12]
  Activity: 10%
[13]
  Activity: 29%
Rattus norvegicus [14]
  Activity: 10%
[8]
  LD50: 20 mg/kg
Rattus norvegicus [15]
  Activity: Active

## COc1ccccc1OCCNC[C@@H](O)COc1cccc2[nH]ccc12
[4]
  Ki: 467.3 nM
[13]
  Activity: 31%
Rattus norvegicus [16]
  Activity: inactive
Rattus norvegicus [17]
  Activity: inactive
[8]
  LD50: 20.4 mg/kg
